Laboratory results reported in the supplement of paper PMC10307832.

Key:
Test in all cases: relative viability (nuclei count vs DMSO), 5 days (fraction); higher = more cells survive
[1] = compound: CC(=O)Nc1cccc(-n2c(=O)n(C3CC3)c(=O)c3c(Nc4ccc(I)cc4F)n(C)c(=O)c(C)c32)c1 [Trametinib] + CS(=O)(=O)CCNCc1ccc(-c2ccc3ncnc(Nc4ccc(OCc5cccc(F)c5)c(Cl)c4)c3c2)o1 [Lapatinib] (partner 2 µM)
How it was run: (§1)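 Five library-drug doses in √10 steps were combined with a fixed anchor-drug dose, or a single drug was given alone, by pin tool to lung cancer cell lines in 1536-well plates the day after seeding. Nuclei were stained and counted after 5 days. Relative viability is the nuclei count in treated wells over that in vehicle wells, taken as the median of duplicate plates.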

[2] = compound: CC(=O)Nc1cccc(-n2c(=O)n(C3CC3)c(=O)c3c(Nc4ccc(I)cc4F)n(C)c(=O)c(C)c32)c1 [Trametinib] + Cc1cc(Nc2cc(N3CCN(C)CC3)nc(Sc3ccc(NC(=O)C4CC4)cc3)n2)n[nH]1 [Tozasertib] (partner 0.1 µM)
How it was run: as §1

[3] = compound: CN1C=C(C2=CC=CC=C21)/C=C\3/C4=C(C=CC=N4)NC3=O + CC(C)C[C@H](NC(=O)[C@H](Cc1ccccc1)NC(=O)c1cnccn1)B(O)O [Bortezomib] (partner 0.002 µM)
How it was run: as §1

[4] = compound: CN1C=C(C2=CC=CC=C21)/C=C\3/C4=C(C=CC=N4)NC3=O + C[C@]1(O)C[C@@H](c2nc(-c3ccc4ccc(-c5ccccc5)nc4c3)c3c(N)nccn32)C1 [Linsitinib] (partner 1 µM)
How it was run: as §1

## NCI-H3122
[1]; first compound 0.0025 µM
  relative viability: 0.995
[1]; first compound 0.007906 µM
  relative viability: 0.737
[1]; first compound 0.025 µM
  relative viability: 0.699
[1]; first compound 0.07906 µM
  relative viability: 0.584
[1]; first compound 0.25 µM
  relative viability: 0.501
[2]; first compound 0.0025 µM
  relative viability: 0.367
[2]; first compound 0.007906 µM
  relative viability: 0.322
[2]; first compound 0.025 µM
  relative viability: 0.183
[2]; first compound 0.07906 µM
  relative viability: 0.217
[2]; first compound 0.25 µM
  relative viability: 0.142
[3]; first compound 0.02 µM
  relative viability: 0.943
[3]; first compound 0.06325 µM
  relative viability: 0.986
[3]; first compound 0.2 µM
  relative viability: 1
[3]; first compound 0.6325 µM
  relative viability: 1.06
[3]; first compound 2 µM
  relative viability: 0.992
[4]; first compound 0.02 µM
  relative viability: 0.895
[4]; first compound 0.06325 µM
  relative viability: 0.972
[4]; first compound 0.2 µM
  relative viability: 1.01
[4]; first compound 0.6325 µM
  relative viability: 1.06
[4]; first compound 2 µM
  relative viability: 1.04

## PC-3 [JPC-3]
[1]; first compound 0.0025 µM
  relative viability: 0.451
[1]; first compound 0.007906 µM
  relative viability: 0.425
[1]; first compound 0.025 µM
  relative viability: 0.425
[1]; first compound 0.07906 µM
  relative viability: 0.404
[1]; first compound 0.25 µM
  relative viability: 0.377
[2]; first compound 0.0025 µM
  relative viability: 0.864
[2]; first compound 0.007906 µM
  relative viability: 0.742
[2]; first compound 0.025 µM
  relative viability: 0.795
[2]; first compound 0.07906 µM
  relative viability: 0.629
[2]; first compound 0.25 µM
  relative viability: 0.563
[3]; first compound 0.02 µM
  relative viability: 0.7
[3]; first compound 0.06325 µM
  relative viability: 0.893
[3]; first compound 0.2 µM
  relative viability: 0.804
[3]; first compound 0.6325 µM
  relative viability: 0.838
[3]; first compound 2 µM
  relative viability: 0.761
[4]; first compound 0.02 µM
  relative viability: 0.947
[4]; first compound 0.06325 µM
  relative viability: 0.902
[4]; first compound 0.2 µM
  relative viability: 0.974
[4]; first compound 0.6325 µM
  relative viability: 0.889
[4]; first compound 2 µM
  relative viability: 0.917

## PC-14
[1]; first compound 0.0025 µM
  relative viability: 0.27
[1]; first compound 0.007906 µM
  relative viability: 0.194
[1]; first compound 0.025 µM
  relative viability: 0.182
[1]; first compound 0.07906 µM
  relative viability: 0.192
[1]; first compound 0.25 µM
  relative viability: 0.192
[2]; first compound 0.0025 µM
  relative viability: 0.508
[2]; first compound 0.007906 µM
  relative viability: 0.527
[2]; first compound 0.025 µM
  relative viability: 0.46
[2]; first compound 0.07906 µM
  relative viability: 0.364
[2]; first compound 0.25 µM
  relative viability: 0.156
[3]; first compound 0.02 µM
  relative viability: 0.826
[3]; first compound 0.06325 µM
  relative viability: 0.831
[3]; first compound 0.2 µM
  relative viability: 0.981
[3]; first compound 0.6325 µM
  relative viability: 0.898
[3]; first compound 2 µM
  relative viability: 0.991
[4]; first compound 0.02 µM
  relative viability: 0.95
[4]; first compound 0.06325 µM
  relative viability: 0.933
[4]; first compound 0.2 µM
  relative viability: 0.988
[4]; first compound 0.6325 µM
  relative viability: 0.929
[4]; first compound 2 µM
  relative viability: 0.96

## RERF-LC-KJ
[1]; first compound 0.0025 µM
  relative viability: 0.812
[1]; first compound 0.007906 µM
  relative viability: 0.822
[1]; first compound 0.025 µM
  relative viability: 0.79
[1]; first compound 0.07906 µM
  relative viability: 0.744
[1]; first compound 0.25 µM
  relative viability: 0.568
[2]; first compound 0.0025 µM
  relative viability: 0.493
[2]; first compound 0.007906 µM
  relative viability: 0.545
[2]; first compound 0.025 µM
  relative viability: 0.539
[2]; first compound 0.07906 µM
  relative viability: 0.509
[2]; first compound 0.25 µM
  relative viability: 0.387
[3]; first compound 0.02 µM
  relative viability: 1.24
[3]; first compound 0.06325 µM
  relative viability: 1.11
[3]; first compound 0.2 µM
  relative viability: 0.994
[3]; first compound 0.6325 µM
  relative viability: 0.958
[3]; first compound 2 µM
  relative viability: 0.974
[4]; first compound 0.02 µM
  relative viability: 0.886
[4]; first compound 0.06325 µM
  relative viability: 0.935
[4]; first compound 0.2 µM
  relative viability: 0.929
[4]; first compound 0.6325 µM
  relative viability: 0.813
[4]; first compound 2 µM
  relative viability: 0.84

## SK-LU-1
[1]; first compound 0.0025 µM
  relative viability: 0.791
[1]; first compound 0.007906 µM
  relative viability: 0.721
[1]; first compound 0.025 µM
  relative viability: 0.538
[1]; first compound 0.07906 µM
  relative viability: 0.426
[1]; first compound 0.25 µM
  relative viability: 0.304
[2]; first compound 0.0025 µM
  relative viability: 0.301
[2]; first compound 0.007906 µM
  relative viability: 0.309
[2]; first compound 0.025 µM
  relative viability: 0.286
[2]; first compound 0.07906 µM
  relative viability: 0.264
[2]; first compound 0.25 µM
  relative viability: 0.181
[3]; first compound 0.02 µM
  relative viability: 0.806
[3]; first compound 0.06325 µM
  relative viability: 0.892
[3]; first compound 0.2 µM
  relative viability: 0.908
[3]; first compound 0.6325 µM
  relative viability: 0.858
[3]; first compound 2 µM
  relative viability: 1.39
[4]; first compound 0.02 µM
  relative viability: 0.838
[4]; first compound 0.06325 µM
  relative viability: 0.894
[4]; first compound 0.2 µM
  relative viability: 1.15
[4]; first compound 0.6325 µM
  relative viability: 1.09
[4]; first compound 2 µM
  relative viability: 1.14

## SW 1573
[1]; first compound 0.0025 µM
  relative viability: 0.875
[1]; first compound 0.007906 µM
  relative viability: 0.925
[1]; first compound 0.025 µM
  relative viability: 0.769
[1]; first compound 0.07906 µM
  relative viability: 0.82
[1]; first compound 0.25 µM
  relative viability: 0.56
[2]; first compound 0.0025 µM
  relative viability: 0.179
[2]; first compound 0.007906 µM
  relative viability: 0.147
[2]; first compound 0.025 µM
  relative viability: 0.191
[2]; first compound 0.07906 µM
  relative viability: 0.129
[2]; first compound 0.25 µM
  relative viability: 0.143
[3]; first compound 0.02 µM
  relative viability: 1.02
[3]; first compound 0.06325 µM
  relative viability: 0.904
[3]; first compound 0.2 µM
  relative viability: 1.11
[3]; first compound 0.6325 µM
  relative viability: 1.11
[3]; first compound 2 µM
  relative viability: 1
[4]; first compound 0.02 µM
  relative viability: 0.894
[4]; first compound 0.06325 µM
  relative viability: 0.793
[4]; first compound 0.2 µM
  relative viability: 0.914
[4]; first compound 0.6325 µM
  relative viability: 0.787
[4]; first compound 2 µM
  relative viability: 0.965
